Experimental findings from patent publication EP0462830B1, “Cyclic ether derivatives” (ZENECA LIMITED, priority 1990, dated 1991) are described below.

Assay [1] deals with 5-LO. Briefly: Test g): zymosan-induced liberation of LTB₄ within a subcutaneous air pouch of male rats. It is filed as in vivo. Conditions: rat air pouch.
The target in assay [2] is T1, 5-LO (Homo sapiens, UniProt P09917).
T1 construct: incubating a test compound with heparinised human blood, prior to challenge with the calcium ionophore A23187; endogenous in cells; host or cells: leukocytes in heparinised human whole blood
T1 sequence (P09917 1-674): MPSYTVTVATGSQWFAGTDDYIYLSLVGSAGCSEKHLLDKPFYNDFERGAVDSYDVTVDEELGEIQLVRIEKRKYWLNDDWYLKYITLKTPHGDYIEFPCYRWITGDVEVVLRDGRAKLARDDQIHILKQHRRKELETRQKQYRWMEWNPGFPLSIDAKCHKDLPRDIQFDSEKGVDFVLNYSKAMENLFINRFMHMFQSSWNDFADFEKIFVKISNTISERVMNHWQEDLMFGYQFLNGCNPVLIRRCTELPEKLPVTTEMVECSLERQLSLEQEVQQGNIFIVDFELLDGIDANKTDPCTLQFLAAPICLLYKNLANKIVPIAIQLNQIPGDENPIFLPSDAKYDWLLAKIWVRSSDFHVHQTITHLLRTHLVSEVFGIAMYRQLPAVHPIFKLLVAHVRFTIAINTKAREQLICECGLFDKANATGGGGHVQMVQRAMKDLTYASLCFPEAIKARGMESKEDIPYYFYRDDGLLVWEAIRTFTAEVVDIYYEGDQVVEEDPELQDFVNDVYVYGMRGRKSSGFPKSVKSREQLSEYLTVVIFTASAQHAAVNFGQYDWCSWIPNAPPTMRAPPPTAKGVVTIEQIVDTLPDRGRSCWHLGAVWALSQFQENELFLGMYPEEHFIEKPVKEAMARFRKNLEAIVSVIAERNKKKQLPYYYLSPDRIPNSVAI
Kind of assay: Test b): heparinised human blood challenged with calcium ionophore A23187, radioimmunoassay of LTB₄. As to conditions: read-out: IC₅₀ (LTB₄). It is filed as cell-based.
Description: This test provides a measure of the intrinsic inhibitory properties of a test compound against soluble 5-LO in an extracellular environment. • b) An in vitro assay system involving incubating a test compound with heparinised human blood, prior to challenge with the calcium ionophore A23187 and then indirectly measuring the inhibitory effects on 5-LO by assaying the amount of LTB₄ using specific radioimmunoassays described by Carey and Forder (F. Carey and R.A. Forder, Prostaglandins, Leukotrienes Med., 1986, 22, 57; Prostaglandins, 1984, 28, 666; Brit. J. Pharmacol. 1985, 84, 34P) which involve the use of a protein-LTB₄ conjugate produced using the procedure of Young et alia (Prostaglandins, 1983, 26(4), 605-613). […] This test provides an indication of the effects of a test compound against 5-LO and also cyclooxygenase in the presence of blood cells and proteins.

SMILES strings stand for the structures.

Take `CSC1(c2cccc(OCc3ccc4ccccc4c3)c2)CCOCC1` [Example 1, 4-methylthio-4-[3-(naphth-2-ylmethoxy)phenyl]tetrahydropyran]: the “oral ED₅₀(LTB₄)” value with 5-LO [1] is recorded as 8 mg/kg. For the same compound, the IC50 at 5-LO [2] was 50 nM.
